The values that follow come from PubChem BioAssay AID2045 (NMMLSC, 2009).

The assay deals with Ras-related protein Rab-2A (Canis lupus familiaris) (UniProt P61105). Kind of assay: Rab2A fluorescent GTP competition potency – biochemical, pyrazoline series, Bodipy-FL-GTP, flow cytometry, multiplex, SAR follow-up (AID 2045). The note with it: Bead-based flow cytometry, Bodipy-FL-GTP binding to Rab2; Ki calculated from EC50.
Sequence of Ras-related protein Rab-2A (Canis lupus familiaris) (P61105 whole entry, looked up): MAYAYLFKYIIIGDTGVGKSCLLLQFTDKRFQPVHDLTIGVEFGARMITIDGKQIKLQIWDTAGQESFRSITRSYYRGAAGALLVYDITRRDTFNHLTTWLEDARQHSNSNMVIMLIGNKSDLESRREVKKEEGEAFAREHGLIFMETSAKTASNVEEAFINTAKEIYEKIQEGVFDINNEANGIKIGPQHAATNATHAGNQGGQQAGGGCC

Usually Ki stands for the equilibrium dissociation constant of an inhibitor or competing ligand from its target. With `COc1ccc(C2=NN(c3cccc(F)c3)C(c3ccc(OC)cc3)C2)cc1` (configuration not stated), the Ki was 60 nM. The result for `COc1ccc(C2=NN(c3ccc(S(N)(=O)=O)cc3)C(c3ccc(OC)cc3)C2)cc1` (configuration not stated) reads 110 nM.
